Experimental findings from patent publication US9624211B2, “Anti-cancer compounds” (Board of Regents, The University of Texas System, priority 2013, dated 2017) are described below.

The target in one experiment is T1, Skp2 SCF complex (Homo sapiens, UniProt Q13309).
T1 construct: made in house; host or cells: 293T cells; anti-Flag immunoprecipitation, eluted with Flag peptide
As to the kind of experiment: In vitro Skp2-mediated Akt ubiquitination assay. In kind it is biochemical. The conditions noted are these: recombinant Akt, FIG. 1H. The procedure:
In vivo and in vitro ubiquitination assays were performed as described with modification (Lin et al., 2009; Yang et al., 2009). For in vitro ubiquitination assay, recombinant GST-Akt proteins were expressed, purified and eluted from the bacterial lysates of BL21 competent cells. Flag-Skp2 SCF complex were expressed in 293T cells, immunoprecipitated by anti-Flag antibody, and eluted from Protein A/G beads using Flag peptides according to manufacturers' standard procedures. Purified GST-Akt and Flag-SCF proteins were incubated for 3 h at 37° C. in the absence and presence of Skp2 inhibitor. After incubation, protein mixtures were diluted in E1A Buffer and the supernatant fluid was precleared with Protein A/G beads for 1 h, and immunoprecipitated overnight with anti-Flag antibody, after which Protein A/G beads were added for an additional 1 h. Beads were washed 4 times with E1A Buffer. Proteins were eluted in SDS-sample buffer and subjected to immunoblotting analysis. For in vivo ubiquitination assay, 293T cells were transfected with the indicated plasmids and cultured in the absence or presence of Skp2 inhibitor for 48 h. 6 h before harvest, cells were cultured in the presence of MG132. After cell harvest, cells were lysed by the denatured buffer (6M guanidine-HCl, 0.1M Na2HPO4/NaH2PO4, 10 mM imidazole). […]

Experiment [1] relates to EGF-mediated Akt phosphorylation and activation. As to the kind of experiment: EGF-mediated Akt phosphorylation, immunoblotting. Conditions: various cancer cell lines. Type of experiment: cell-based. From the text:
Cells were lysed with RIPA buffer in the presence of protease inhibitor cocktail (Roche). The following antibodies were used for immunoblotting analysis: anti-Skp2 (Invitrogen), anti-Xpress (Invitrogen), anti-p27 (BD transduction laboratories), anti-p21 (Santa Cruz), anti-β-actin (Sigma), anti-α-tubulin (Sigma), anti-phospho-Akt (Thr308) (Cell Signaling), anti-phospho-Akt (Ser473) (Cell Signaling), and anti-HA (Convance). For immunohistochemistry, tissues were fixed in 10% formalin and embedded in paraffin in accordance with standard procedures. Sections were stained with anti-Skp2 (Invitrogen), anti-p27 (Epitomics), anti-phosphoAkt (SerS473) (Cell signaling), anti-Glut1 (Abcam), and anti-Ki67 (Abcam). TUNEL staining was performed by using in situ cell death detection kit-POD (Roche).

The next experiment has as its system H3299 (lung). Kind of experiment: Cell survival assay, H3299. Type of experiment: cell-based, human. How it is done:
(§1) For Skp2 inhibitor administration, 5-10×10^3 of cells with were seeded in 12 wells in triplicate, 24 h later, treated with compound #25 (refreshed every two days). Four days later, cells were harvested, stained with trypan blue, and viable cells were counted directly under the microscope using hemocytometer. For doxorubicin treatment, 8×10^3 of PC3 cells with were seeded in 12 wells in triplicate, 24 h later, treated with various dose of compound #25 in the presence or absence of 10 nM doxorubicin or 25 ng/ml cyclophosphamide for four and three days, respectively (refreshed every two days). After treatment, cells were harvested, stained with trypan blue, and viable cells were counted directly under the microscope using hemocytometer. Cellular senescence was determined by assessing SA-b-gal activity using senescence detection kit according to manufacturers' standard procedures (Calbiochem).

Another experiment relates to U2OS (osteocarcinoma). Kind of experiment: Cell survival assay, U2OS. In kind it is cell-based, human. The procedure:
as §1

T1 sequence (Q13309 whole entry, one chain of several): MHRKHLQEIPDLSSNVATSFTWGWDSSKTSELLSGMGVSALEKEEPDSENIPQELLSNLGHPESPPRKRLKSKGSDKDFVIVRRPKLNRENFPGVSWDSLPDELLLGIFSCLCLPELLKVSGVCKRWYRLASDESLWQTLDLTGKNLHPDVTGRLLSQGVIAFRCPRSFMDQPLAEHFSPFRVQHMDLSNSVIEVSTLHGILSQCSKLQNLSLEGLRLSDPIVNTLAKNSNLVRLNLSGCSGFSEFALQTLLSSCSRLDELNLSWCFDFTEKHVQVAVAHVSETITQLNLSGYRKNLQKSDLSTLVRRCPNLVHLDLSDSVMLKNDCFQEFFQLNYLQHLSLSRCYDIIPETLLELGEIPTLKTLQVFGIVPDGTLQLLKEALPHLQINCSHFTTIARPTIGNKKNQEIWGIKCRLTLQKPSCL

On to `CCc1cc2c(=O)c(-c3nc4ccccc4s3)coc2c(CN2CCCCC2)c1O` [compound #25, 3-(1,3-benzothiazol-2-yl)-6-ethyl-7-hydroxy-8-(1-piperidinylmethyl)-4H-chromen-4-one], for which the “Skp2-mediated Akt ubiquitination in vitro” value on Skp2 SCF complex is on record as “attenuated Skp2-mediated Akt ubiquitination”. Also, the “EGF-mediated Akt phosphorylation and activation” value in experiment [1] is “profoundly inhibited”. The cell viability entry in the experiment on H3299 (lung) and in the experiment on U2OS (osteocarcinoma) was “potent suppressive effect on viability” each time.
